Peptide text beside a SMILES is read from it.
Assays:
mice [1] = test: Tolerability in mice; type: in vivo; settings: 100 mg/Kg i.p.
[2] = type: in vitro ADME
Text: Resistance to the In Vitro Simulated Gastric Ambient The tripeptide is resistant to the in vitro simulated gastric ambient. In this study the gastric simulated juice USP XXI (HCl+pepsin) has been used at 37 C for 5 hrs.

[3] = Pentobarbital-induced sleeping time; type: in vivo; settings: 100 mg/Kg
mice [4] = test: Acute toxicity in mice; type: in vivo; settings: up to a dose of 1000 mg/Kg i.m.
rats = test: Acute toxicity in rats; type: in vivo; settings: up to a dose of 1000 mg/Kg i.m.
guinea-pig = settings: in vivo, 100 mg/kg
rabbits = test: Tolerability in rabbits; type: in vivo; settings: 100 mg/Kg i.v.

N=C(N)NCCC[C@H](N)C(=O)N[C@@H](CCCCN)C(=O)N[C@@H](CCC(=O)O)C(=O)O [ELS1, Arg-Lys-Glu] (H-Arg-Lys-Glu-OH)
tolerability: hemodynamic modification and behavioral effect (mice [1]): doesn't cause any hemodynamic modification and behavioral effect | resistance to the in vitro simulated gastric ambient [2]: resistant | pentobarbital-induced sleeping time [3]: only a slight increase | acute toxicity (mice [4]): totally devoid of toxic effects | acute toxicity (rats): totally devoid of toxic effects | sensitization phenomena (guinea-pig): doesn't induce any sensitization phenomena | tolerability: hemodynamic modification and behavioral effect (rabbits): doesn't cause any hemodynamic modification and behavioral effect

From patent publication US4874844A, “Tripeptide with immunostimulating activity” (Ellem Industria Farmaceutica S.p.A., priority 1986, dated 1989)
